Two molecules from article PMC6749346, “Synthesis of Isorhamnetin-3-O-Rhamnoside by a Three-Enzyme (Rhamnosyltransferase, Glycine Max Sucrose Synthase, UDP-Rhamnose Synthase) Cascade Using a UDP-Rhamnose Regeneration System” (Molecules, 2019) can be followed below.

Data set [1] has as its target T1, rhamnosyltransferase 78D1 (Arabidopsis thaliana, UniProt Q9S9P6).
T1 construct: gene UGT78D1; codon-optimised synthetic gene in pET-28a (BamHI/EcoRI), E. coli BL21(DE3), Ni-NTA purified; theoretical monomer mass 50019 Da
T1 sequence (Q9S9P6 1-453): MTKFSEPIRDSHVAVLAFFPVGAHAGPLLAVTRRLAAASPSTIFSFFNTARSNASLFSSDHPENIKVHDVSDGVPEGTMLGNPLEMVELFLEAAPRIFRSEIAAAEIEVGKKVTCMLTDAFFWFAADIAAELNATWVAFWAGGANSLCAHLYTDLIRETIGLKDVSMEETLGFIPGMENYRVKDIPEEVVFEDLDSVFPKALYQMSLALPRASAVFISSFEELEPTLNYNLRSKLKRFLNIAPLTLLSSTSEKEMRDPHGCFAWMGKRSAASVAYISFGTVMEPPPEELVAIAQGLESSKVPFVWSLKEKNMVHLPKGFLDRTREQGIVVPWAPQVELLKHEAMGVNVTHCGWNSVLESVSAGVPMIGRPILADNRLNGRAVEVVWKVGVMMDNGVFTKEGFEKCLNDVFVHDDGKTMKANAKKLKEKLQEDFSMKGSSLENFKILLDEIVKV
Description: HPLC activity assay with […] UDP, […] min pre-incubation. Format: biochemical. Particulars: inhibitor; UDP-rhamnose donor, 0.5 mM isorhamnetin; 50 mM phosphate pH 7.5; 35 °C.

Substrate in data set [2]: COc1cc(-c2oc3cc(O)cc(O)c3c(=O)c2O)ccc1O
Description: HPLC of isorhamnetin-3-O-rhamnoside formation, initial rates. Format: biochemical, Arabidopsis thaliana. Particulars: co-substrate excess UDP-rhamnose, 50 mM phosphate pH 7.5, 35 °C.

Consider `O=c1ccn([C@@H]2O[C@H](COP(=O)(O)OP(=O)(O)O)[C@@H](O)[C@H]2O)c(=O)[nH]1` [UDP], for which, in data set [1], the “% activity” value is on record as “The enzyme activity was inhibited when the concentration of UDP was gradually increased”.

B1: rhamnosyltransferase 78D1 (Arabidopsis thaliana) (protein)
chain: T1 sequence (Q9S9P6 1-453)
notes: codon-optimised synthetic gene in pET-28a (BamHI/EcoRI), E. coli BL21(DE3), Ni-NTA purified; theoretical monomer mass 50019 Da
For the molecule B1, in data set [2], the Km was found to be 181 µM.
